Converted amounts (≈) assume the structure as drawn.
What was measured:
dCTP pyrophosphatase 1 = biological target: T1, dCTP pyrophosphatase 1 (Homo sapiens, UniProt Q9H773); assay: Inhibition of recombinant human N-terminal His-tagged dCTPase 1 expressed in Escherichia coli BL21(DE3)pLysS using dCTP as substrate after 1 hr by malachite green reagent based assay
T1 sequence (Q9H773 whole entry): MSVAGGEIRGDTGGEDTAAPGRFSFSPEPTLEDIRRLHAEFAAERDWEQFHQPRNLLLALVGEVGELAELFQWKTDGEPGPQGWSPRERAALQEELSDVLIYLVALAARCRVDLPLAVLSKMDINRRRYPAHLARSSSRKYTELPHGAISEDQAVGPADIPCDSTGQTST

[1] = Stability of the compound in DMSO measured after several months by HPLC-MS analysis; assay type: physicochemical
[2] = Half life in mouse liver microsomes up to 100 uM preincubated for 10 mins followed by NADPH addition by UPLC-MS analysis; assay type: ADME, microsome
[3] = Half life in human liver microsomes up to 100 uM preincubated for 10 mins followed by NADPH addition by UPLC-MS analysis; assay type: ADME, microsome
[4] = Kinetic solubility of the compound; assay type: physicochemical; conditions: read-out: Kinetic_solubility
[5] = Hepatic extraction ratio in human liver microsomes up to 100 uM preincubated for 10 mins followed by NADPH addition by UPLC-MS analysis; assay type: ADME, microsome; conditions: read-out: ERH
[6] = Hepatic extraction ratio in mouse liver microsomes up to 100 uM preincubated for 10 mins followed by NADPH addition by UPLC-MS analysis; assay type: ADME, microsome; conditions: read-out: ERH
[7] = Metabolic stability in human plasma after 4 hrs; assay type: ADME, cell-free; conditions: read-out: Stability
[8] = Fraction unbound in human plasma; assay type: ADME, cell-free
[9] = Intracellular bioavailability in human HL60 cells assessed as ratio of fraction unbound in cells to intracellular drug accumulation at 0.5 uM after 45 mins by LC-MS/MS analysis; assay type: ADME; conditions: hl-60, 0.75 h
HL-60 = assay: Cytotoxicity against human HL60 cells assessed as decrease in cell viability at 1 to 5 uM after 72 hrs by resazurin assay; assay type: cell-based; conditions: hl-60, 72 h
[10] = Stability of the compound in biochemical assay buffer under mildly acidic mobile phase conditions by HPLC-MS analysis; assay type: physicochemical
[11] = Stability of the compound in biochemical assay buffer under basic mobile phase conditions by HPLC-MS analysis; assay type: physicochemical
[12] = biological target: T2, dCTP pyrophosphatase 1 (Homo sapiens) (UniProt Q9H773)
T2 sequence (whole entry): T1 sequence (Q9H773 whole entry)
Description: Binding affinity to recombinant human N-terminal His-tagged dCTPase 1 expressed in Escherichia coli BL21(DE3)pLysS assessed as change in melting temperature at 33 uM by Sypro Orange dye based DSF assay

[13] = biological target: Oxidized purine nucleoside triphosphate hydrolase (Homo sapiens, UniProt P36639); assay: Inhibition of recombinant human MTH1 using dGTP as substrate after 1 hr by malachite green reagent based assay
[14] = biological target: Bis(5'-nucleosyl)-tetraphosphatase [asymmetrical] (Homo sapiens, UniProt P50583); assay: Inhibition of NUDT2 (unknown origin) by malachite green reagent based assay
Sequence of Bis(5'-nucleosyl)-tetraphosphatase [asymmetrical] (P50583 whole entry): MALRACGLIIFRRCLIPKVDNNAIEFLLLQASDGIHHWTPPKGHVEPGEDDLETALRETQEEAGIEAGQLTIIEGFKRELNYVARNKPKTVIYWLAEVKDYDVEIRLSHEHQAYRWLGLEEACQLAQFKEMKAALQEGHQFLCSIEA

[15] = biological target: ADP-sugar pyrophosphatase (Homo sapiens, UniProt Q9UKK9); assay: Inhibition of human His-tagged NUDT5 expressed in bacterial expression system in presence of ADP after 1 hr by malachite green reagent based assay
[16] = biological target: T3, Uridine diphosphate glucose pyrophosphatase NUDT14 (Homo sapiens, UniProt O95848); assay: Inhibition of human His-tagged NUDT14 expressed in bacterial expression system after 1 hr by malachite green reagent based assay
T3 sequence (O95848 whole entry): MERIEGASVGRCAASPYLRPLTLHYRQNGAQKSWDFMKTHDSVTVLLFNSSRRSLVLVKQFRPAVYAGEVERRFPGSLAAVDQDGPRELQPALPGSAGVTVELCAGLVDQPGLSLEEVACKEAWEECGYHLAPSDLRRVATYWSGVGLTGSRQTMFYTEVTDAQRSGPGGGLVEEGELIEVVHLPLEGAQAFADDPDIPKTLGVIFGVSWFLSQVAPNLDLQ

[17] = biological target: T4, ADP-ribose pyrophosphatase, mitochondrial (Homo sapiens, UniProt Q9BW91); assay: Inhibition of NUDT9 (unknown origin) by malachite green reagent based assay
T4 sequence (Q9BW91 whole entry): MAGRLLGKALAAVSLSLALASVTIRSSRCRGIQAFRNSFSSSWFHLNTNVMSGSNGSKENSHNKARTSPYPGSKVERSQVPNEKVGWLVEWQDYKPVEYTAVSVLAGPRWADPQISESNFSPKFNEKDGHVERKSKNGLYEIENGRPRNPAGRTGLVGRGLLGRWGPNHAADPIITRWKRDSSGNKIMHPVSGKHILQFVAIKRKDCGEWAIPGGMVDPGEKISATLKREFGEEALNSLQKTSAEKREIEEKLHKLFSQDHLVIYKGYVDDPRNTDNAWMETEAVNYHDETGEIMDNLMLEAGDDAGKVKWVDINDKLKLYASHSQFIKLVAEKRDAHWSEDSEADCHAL

[18] = biological target: T5, Nucleotide triphosphate diphosphatase NUDT15 (Homo sapiens, UniProt Q9NV35); assay: Inhibition of human His-tagged NUDT15 expressed in bacterial expression system after 1 hr by malachite green reagent based assay
T5 sequence (Q9NV35 whole entry): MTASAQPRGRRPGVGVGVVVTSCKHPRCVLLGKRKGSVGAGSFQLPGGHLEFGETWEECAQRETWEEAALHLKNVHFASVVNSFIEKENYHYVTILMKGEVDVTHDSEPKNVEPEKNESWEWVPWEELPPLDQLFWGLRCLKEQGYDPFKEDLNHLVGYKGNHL

[19] = biological target: Inosine triphosphate pyrophosphatase (Homo sapiens, UniProt Q9BY32); assay: Inhibition of human His-tagged ITPase expressed in bacterial expression system after 1 hr by malachite green reagent based assay
[20] = Inhibition of human His-tagged dUTPase expressed in bacterial expression system after 1 hr by malachite green reagent based assay

SMILES | IC50 (dCTP pyrophosphatase 1) [µM] | Stability [1] | half-life [2] [min] | half-life [3] [min] | solubility kinetic [4] [µM] | hepatic extraction ratio [5] | hepatic extraction ratio [6] | Ratio [9] | Activity (HL-60) | Stability [10] | Stability [11] | ΔTm [12] [°C] | further results
COc1ccc(-c2nn3c(-c4ccccn4)nnc3s2)cc1OC | 0.079 to 0.094 | Stable | 3 | 21 | 27 (≈ 9.16 µg/mL) | 0.67 | 0.95 | 0.15 | Non-Toxic | Stable | Stable | 9.4 | remaining at 4 h [7]: 100%; fraction unbound [8]: 0.063
c1ccc(-c2nnc3sc(-c4ccc5c(c4)OCO5)nn23)nc1 | 0.19 | Stable | 1 | 3 | 25 (≈ 8.08 µg/mL) | 0.96 | 0.99 | 3.5 | – | Stable | Stable | 3.1 | –
Cc1cc(-c2nn3c(-c4cccs4)nnc3s2)n[nH]1 | > 10 | Stable | 2 | 14 | 58 (≈ 16.7 µg/mL) | 0.79 | 0.97 | 0.78 | – | Stable | Stable | 0.9 | –
COc1ccc(-c2nn3c(-c4ccco4)nnc3s2)cc1OC | 0.019 | Stable | 1 | 5 | 19 (≈ 6.24 µg/mL) | 0.91 | 0.99 | – | Non-Toxic | Stable | Stable | – | –
COc1ccc(-c2nn3c(-c4cccs4)nnc3s2)cc1OC | – | Stable | 1 | 4 | 3 (≈ 1.03 µg/mL) | – | – | – | Non-Toxic | Stable | Stable | – | IC50 [13]: > 100 µM; IC50 [14]: > 100 µM; IC50 [15]: > 100 µM; IC50 [16]: > 100 µM; IC50 [17]: > 100 µM; IC50 [18]: > 100 µM; IC50 [19]: > 100 µM; IC50 [20]: > 100 µM

Reference: ChEMBL document CHEMBL4007403, “Identification of Triazolothiadiazoles as Potent Inhibitors of the dCTP Pyrophosphatase 1” (J Med Chem, 2017)
